Patent US20220003750A1, “FUNCTIONAL SCREEN FOR SMALL MOLECULE AND MONOCLONAL ANTIBODY DRUG SENSITIVITY IN MULTIPLE MYELOMA PATIENTS” (The Regents of the University of Colorado, a body corporate, priority 2018, published 2022)

How the values were obtained:
[1] = test system: primary MM cells in patient bone marrow aspirate MNC cultures; assay: Myeloma drug sensitivity testing (My-DST): ex vivo 48 h culture of patient bone marrow MNCs, flow cytometry of surviving MM cells
From the text: Extra bone marrow aspirate was collected from patients at University of Colorado Blood Cancer and Bone Marrow Transplant Program after informed consent. Samples from patients with multiple myeloma or smoldering myeloma were obtained from the hematologic malignancies tissue bank with protocol approval from the Western Institutional Review Board. MNCs were isolated from the samples using SepMate Ficoll-Plaque tubes (StemCell Technologies). Normal donor samples were purchased from AllCells. Selection of CD138^+ cells was performed with magnetic bead columns (Miltenyi), only where specifically noted.
(§1) De-identified primary myeloma samples were thawed and incubated with 100 μg DNase I (Sigma-Aldrich). Samples were washed twice with 10 mL Dulbecco's Phosphate Buffered Saline (DPBS) without calcium and magnesium. Cells were resuspended in RPMI1640 medium containing L-glutamine with 10% FBS and 100 U/mL penicillin and 100 μg/mL streptomycin (Thermo Fisher Scientific) and 2 ng/mL IL-6 (PeproTech) at 37° C. for 2 hours. Cells were then transferred to 96-well plates at 4.5×10^5 cells/mL (90,000 MNCs per well) and drug treated for 48 hours. PIs, IMiDs and Dex were purchased from Thermo Fisher. […] Stock drug solutions were prepared at 10 mM in DMSO and stored at −20° C. until use. Dara was obtained from University of Colorado Health Pharmacy. Clodronate-liposomes were purchased from Encapsula Nanosciences to block macrophage activity.
(§2) After 48-hour treatment primary samples were washed in 1× cold DPBS and re-suspended in BD Brilliant Stain Buffer (BD Biosciences) in a 96-well v-bottom plate. Cells were treated with FcR Blocking Reagent (Miltenyi Biotec) for 5 minutes and then surface stained with the antibodies anti-CD19-BV786, anti-CD45-BV510, monoclonal anti-CD38-BV421 or multi-epitope anti-CD38-FITC (ALPCO), anti-CD138-BV421 and anti-CD319-APC or anti-CD46 conjugated to Alexa647 with the Antibody Labeling Kit (In Vitrogen). Intracellular staining with anti-kappa-BV605 and anti-lambda-PE light chains was performed after paraformaldehyde fixation and permeabilization. All antibodies were purchased from BD Biosciences, except as noted. After staining, samples were washed with 100 μl DPBS containing 2% FBS (FACS buffer) and re-suspended in 250 μL. Viability staining was done using the LIVE/DEAD Fixable Near-IR Kit (Invitrogen, Carlsbad Calif.). Flow cytometry data was collected using a FACSCelesta (BD) equipped with a high throughput sampler (FITS). For each well a fixed volume of 175 μL was collected by the HTS. Data analysis was completed using FlowJo software.
To profile response to the agents commonly used in clinic, patient samples were initially screened with a panel including bortezomib (Bor), carfilzomib (Car), lenalidomide (Len), pomalidomide (Pom), Dex and Cy (tested as its active metabolite “4-HC”). MNCs are cultured for 48 hours, followed by flow cytometry to measure the surviving MM cell population. To accurately measure the MM cells on a sample-by-sample basis, cells were labeled for surface expression of CD138, CD38, CD45, CD19, CD319 and CD46. […] In parallel, intracellular flow cytometry for kappa and lambda was used to verify the clonality and individualize the MM population gating (FIG. 1F).
For rapid screening, single concentrations of each drug were sought that produce an expected decrease in MM cell viability by which to judge sensitivity versus resistance. This was started by establishing the dose response to each drug under the above conditions. Each condition was performed in triplicate and normalized compared to untreated control.

[2] = test system: non-plasma cells (NPCs) negative for CD138 and CD38; details: 48 h; for viability of nonplasma cells (NPCs) in the cultures: patient samples (FIG. 2A, 7E)
Method: as §1
as §2, with “software. […]” for “software.”

[3] = test system: nonmalignant plasma cells from normal donor bone marrow; assay: My-DST quality control: normal donor bone marrow aspirates, nonmalignant plasma cells; type: cell-based, human; details: 48 h (FIG. 2B, 7F)
From the text: Normal donor samples were purchased from AllCells.
PIs, IMiDs and Dex were purchased from Thermo Fisher. […] Dara was obtained from University of Colorado Health Pharmacy.
Data analysis was completed using FlowJo software.

[4] = patient 614, with progression of disease (FIG. 5D)

O=P1(N(CCCl)CCCl)NCCCO1 (stereo not shown) [C, cyclophosphamide] was tested, and the “viability of MM cells compared to untreated controls (FIG. 1G)” value ([1]; 48 h, representative patient sample) was “reduced viable MM cells”, the “EV sensitivity in samples from patients with prior clinical exposure versus naïve” value ([1]; FIGS. 8C-8F) was “unchanged” and the “change of ex vivo drug sensitivity between biopsies at multiple time points” value (from here on “change”) ([1]; patient 634, multiple relapse time points (FIG. 5E)) was “remained IMiD and cyclophosphamide resistant”. The “change” value ([1]; patient 646 (FIG. 5F)) was “surprising re-sensitization”, the “change” value ([1]; patient 700 (FIG. 5C)) was “increased sensitivity” and the “nonspecific cytotoxicity on the bulk MNC population (FIG. 1G)” value [2] was “sometimes showed nonspecific cytotoxicity”. For the same molecule, the “viability of nonplasma cells (NPCs) in the cultures” value [2] was “occasional exception”.
For CC(C)C[C@H](NC(=O)[C@H](CCc1ccccc1)NC(=O)CN1CCOCC1)C(=O)N[C@@H](Cc1ccccc1)C(=O)N[C@@H](CC(C)C)C(=O)[C@@]1(C)CO1 [Car, carfilzomib], the “change” value [1, 4] was “significantly increased drug resistance”.
Nc1cccc2c1CN(C1CCC(=O)NC1=O)C2=O (stereo not shown) [R, lenalidomide] was tested, and the “change” value [1, 4] was “significantly increased drug resistance” and the “change” value ([1]; patient 700 (FIG. 5C)) was “significantly increased drug resistance”.
CC(C)C[C@H](NC(=O)[C@H](Cc1ccccc1)NC(=O)c1cnccn1)B(O)O [V, bortezomib] was tested, and the “change” value ([1]; patient 646 (FIG. 5F)) was “lost isolated bortezomib sensitivity”.
With “IL-6: interleukin-6, cytokine added to the culture, 2 ng/mL” the “MM cell viability loss in culture on IL-6 addition (FIG. 1B)” value ([1]; ex vivo supplementation of culture) was “attenuated MM cell viability loss in culture for some patient samples”.
daratumumab was tested, and the “ex vivo response in samples from patients who had recently received Dara” value ([1]; 20 nM, Dara-exposed patients (FIG. 6C)) was “ex vivo resistance was evident”, the “ex vivo activity, newly diagnosed versus relapsed samples” value ([1]; 20 nM, Dara-naïve patients (FIG. 6C)) was “very similar activity” and the “ex vivo sensitivity in naïve patients compared to those with prior exposure” value ([1]; 20 nM, P=0.003 (FIG. 6D)) was “significantly lower”. For the same molecule, the “ex vivo activity after addition of clodronate-containing liposomes (macrophage deactivation)” value ([1]; 3/3 Dara-sensitive samples (FIG. 7D)) was “partially blocked”, the “dose response of viable MM cells (FIG. 6A)” value ([1]; 48 hours ex vivo culture) was “dose dependent reduction in viable MM cells” and the “viability of nonplasma cells (NPCs) in the cultures” value [2] was “did not affect the viability”. For the same molecule, the “viability of plasma cells from BM aspirates from normal donors” value [3] was “did not substantially reduce viability”.
